According to the supplement of paper PMC10307832:

Key:
Assay in all cases: relative viability (nuclei count vs DMSO), 5 days (fraction); higher = more cells survive
[1] = compound: C=CCc1cccc(/C=N/NC(=O)CN2CCN(Cc3ccccc3)CC2)c1O [PAC-1] + CCNC(=O)c1noc(-c2cc(C(C)C)c(O)cc2O)c1-c1ccc(CN2CCOCC2)cc1 [Luminespib] (partner 0.01 µM)
Procedure, shortened: (§1)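 Medians of duplicate plates are given as relative viability. That measure is the nuclei count in treated wells divided by the count in vehicle wells. Counts were taken on 4× images of lung cancer cell lines in 1536-well plates, 5 days after pin-tool dosing the day after seeding with one drug alone or a fixed anchor-drug dose plus five library-drug doses (not always all listed) in √10 steps.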

[2] = compound: C=CC(=O)N1CCC[C@@H](n2nc(-c3ccc(Oc4ccccc4)cc3)c3c(N)ncnc32)C1 [Ibrutinib] + CC(=O)c1c(C)c2cnc(Nc3ccc(N4CCNCC4)cn3)nc2n(C2CCCC2)c1=O [Palbociclib] (partner 0.5 µM)
Procedure, shortened: as §1

[3] = compound: C=CCc1cccc(/C=N/NC(=O)CN2CCN(Cc3ccccc3)CC2)c1O [PAC-1] + CS(=O)(=O)N1CCN(Cc2cc3nc(-c4cccc5[nH]ncc45)nc(N4CCOCC4)c3s2)CC1 [Pictilisib] (partner 1 µM)
Procedure, shortened: as §1

[4] = compound: C=CC(=O)N1CCC[C@@H](n2nc(-c3ccc(Oc4ccccc4)cc3)c3c(N)ncnc32)C1 [Ibrutinib] + CS(=O)(=O)CCNCc1ccc(-c2ccc3ncnc(Nc4ccc(OCc5cccc(F)c5)c(Cl)c4)c3c2)o1 [Lapatinib] (partner 2 µM)
Procedure, shortened: as §1

Cell Line | relative viability ([1]; first compound 0.02 µM) | relative viability ([1]; first compound 0.06325 µM) | relative viability ([1]; first compound 0.2 µM) | relative viability ([1]; first compound 2 µM) | relative viability ([2]; first compound 0.005 µM) | relative viability ([2]; first compound 0.01581 µM) | relative viability ([2]; first compound 0.05 µM) | relative viability ([2]; first compound 0.1581 µM) | relative viability ([2]; first compound 0.5 µM) | relative viability ([3]; first compound 0.02 µM) | relative viability ([3]; first compound 0.06325 µM) | relative viability ([3]; first compound 0.2 µM) | relative viability ([3]; first compound 2 µM) | relative viability ([4]; first compound 0.005 µM) | relative viability ([4]; first compound 0.01581 µM) | relative viability ([4]; first compound 0.05 µM) | relative viability ([4]; first compound 0.1581 µM) | relative viability ([4]; first compound 0.5 µM)
NCI-H1975 | 0.242 | 0.188 | 0.253 | 0.167 | 0.546 | 0.446 | 0.502 | 0.457 | 0.17 | 0.281 | 0.304 | 0.308 | 0.303 | 0.899 | 0.772 | 0.837 | 0.79 | 0.517
NCI-H1993 | 0.951 | 0.861 | 0.399 | 0.789 | 0.388 | 0.56 | 1.64 | 0.714 | 0.466 | 0.696 | 0.881 | 0.844 | 0.823 | 0.766 | 0.576 | 0.856 |  | 0.764
NCI-H2009 | 1.01 | 1.04 | 1.03 | 1.01 | 0.136 | 0.214 | 0.183 | 0.169 | 0.288 | 0.832 | 0.866 | 0.792 | 0.789 | 0.952 | 0.945 | 0.94 | 0.65 | 0.988
NCI-H2023 | 0.741 | 0.703 | 0.667 | 0.444 | 0.33 | 0.292 | 0.346 | 0.41 | 0.311 | 0.224 | 0.262 | 0.213 | 0.258 | 0.622 | 0.711 | 0.772 | 0.818 | 0.868
NCI-H2085 | 0.42 | 0.496 | 0.43 | 0.484 | 0.467 | 0.469 | 0.425 | 0.47 | 0.44 | 0.446 | 0.518 | 0.422 | 0.485 | 0.651 | 0.727 | 0.75 | 0.752 | 0.631
NCI-H2087 | 0.174 | 0.243 | 0.21 | 0.182 | 0.243 | 0.217 | 0.161 |  |  | 0.852 | 0.901 | 0.782 | 0.683 | 1.09 | 1.17 | 0.986 | 1.03 | 1.11
NCI-H2126 | 0.989 | 0.889 | 0.93 | 0.948 | 0.348 | 0.322 | 0.34 | 0.342 | 0.345 | 0.43 | 0.478 | 0.495 | 0.49 |  | 0.726 | 0.756 | 0.741 | 0.706
NCI-H2170 | 0.64 | 0.607 | 0.542 | 0.606 | 0.329 | 0.296 | 0.259 | 0.385 | 0.139 | 0.28 | 0.315 | 0.362 | 0.27 | 0.247 | 0.258 | 0.245 | 0.25 | 0.26
NCI-H2228 | 0.16 | 0.146 | 0.162 | 0.182 | 0.912 | 0.687 | 0.697 | 0.947 | 0.779 | 0.42 | 0.507 | 0.397 | 0.362 | 0.746 | 0.974 | 0.833 | 0.884 | 1.1
NCI-H2347 | 0.302 | 0.427 | 0.536 | 0.583 | 0.391 | 0.386 | 0.478 | 0.492 | 0.428 | 0.51 | 0.723 | 0.604 | 0.591 | 0.962 | 0.899 | 0.897 | 0.555 | 0.861
NCI-H2405 | 0.611 | 0.652 | 0.656 | 0.789 | 0.49 | 0.514 |  |  | 0.525 | 0.44 | 0.455 | 0.45 | 0.376 | 0.942 | 1.08 | 0.973 |  | 1.09
NCI-H3122 | 0.119 | 0.0845 | 0.0804 | 0.0955 | 0.188 | 0.178 | 0.184 | 0.176 | 0.196 | 0.611 | 0.564 | 0.645 | 0.566 | 0.953 | 1.03 | 1.04 | 0.948 | 0.99
PC-3 [JPC-3] | 0.774 | 0.644 | 0.53 | 0.664 | 0.585 | 0.527 | 0.515 | 0.54 | 0.486 | 0.736 | 0.77 | 0.732 | 0.787 | 0.389 | 0.45 | 0.439 | 0.413 | 0.444
PC-14 | 0.127 | 0.172 | 0.151 | 0.252 | 0.527 | 0.495 | 0.576 | 0.575 | 0.172 | 0.667 | 0.681 | 0.623 | 0.677 | 0.308 | 0.302 | 0.285 | 0.322 | 0.327
RERF-LC-KJ | 1.22 | 1.2 | 1.16 | 1.06 | 1.12 | 0.915 | 0.928 | 1.09 | 0.931 | 0.553 | 0.471 | 0.423 | 0.552 | 0.831 | 0.931 | 0.937 | 0.888 | 0.785
SK-LU-1 | 0.216 | 0.375 | 0.223 | 0.191 | 0.372 | 0.365 | 0.392 | 0.407 | 0.365 | 0.557 | 0.607 | 0.457 | 0.512 | 0.88 | 0.76 | 0.838 | 0.937 | 0.905
SW 1573 | 0.214 | 0.175 | 0.223 | 0.371 |  | 0.345 | 0.419 | 0.393 | 0.477 | 0.475 | 0.448 | 0.394 | 0.457 | 1.01 | 1.22 | 1.3 | 1 | 1.22
UMC-11 | 1.05 | 0.986 | 1.04 | 0.928 |  | 0.335 | 0.359 | 0.417 | 0.355 | 0.843 | 0.783 | 0.754 | 0.815 | 0.545 | 0.978 | 1.1 | 0.87 | 0.907
